Test results taken from ChEMBL document CHEMBL1255282, “Escherichia coli isolate coproducing 16S rRNA Methylase and CTX-M-type extended-spectrum beta-lactamase isolated from an outpatient in the United States” (2008).
Values after ≈ are worked out from the molar mass of the structure shown. Active and inactive are the calls of the source. The calls are words filed in the database; no cut-off is given here.

Legend:
Assay type in all cases: functional
[1] = system: Escherichia coli; assay: Antibacterial activity against 16S rRNA methylase RmtB and CTX-M-65 ESBL producing Escherichia coli isolate ECRB1 by Etest
[2] = system: Escherichia coli; assay: Antibacterial activity against Escherichia coli DH10B harboring pBCSK expressing rmtB gene by Etest
[3] = system: Escherichia coli; assay: Antibacterial activity against 16S rRNA methylase rmtB and CTX-M-65 ESBL producing rifampin resistant Escherichia coli isolate ECRB1 by Etest
[4] = system: Escherichia coli; assay: Antibacterial activity against 16S rRNA methylase RmtB and CTX-M-65 ESBL producing Escherichia coli DH10B by Etest

Molecule | MIC [1] [µg/mL] | MIC [2] [µg/mL] | MIC [3] [µg/mL] | MIC [4] [µg/mL] | Activity [1]
GENTAMICIN | > 256 | > 256 | > 128 | > 128 | 
NCC[C@H](O)C(=O)N[C@@H]1C[C@H](N)[C@@H](O[C@H]2O[C@H](CN)[C@@H](O)[C@H](O)[C@H]2O)[C@H](O)[C@H]1O[C@H]1O[C@H](CO)[C@@H](O)[C@H](N)[C@H]1O [AMIKACIN] | > 256 | > 256 | ≥ 128 | ≥ 128 | 
CO/N=C(\C(=O)N[C@@H]1C(=O)N2C(C(=O)O)=C(COC(C)=O)CS[C@H]12)c1csc(N)n1 [CEFOTAXIME] | 64 (≈ 141 µM) |  | 96 (≈ 211 µM) | 96 (≈ 211 µM) | 
NC[C@H]1O[C@H](O[C@H]2[C@H](O)[C@@H](O[C@H]3O[C@H](CO)[C@@H](O)[C@H](N)[C@H]3O)[C@H](N)C[C@@H]2N)[C@H](N)C[C@@H]1O [TOBRAMYCIN] | > 256 | > 256 | ≥ 128 | ≥ 128 | 
O=C(O)c1cn(C2CC2)c2cc(N3CCNCC3)c(F)cc2c1=O |  |  |  |  | Active
